Results from PMC7933930, “Development of a small molecule that corrects misfolding and increases secretion of Z α1‐antitrypsin” (EMBO Molecular Medicine, 2021).
Where two headings read alike, the source gives them in different places.

Tests used:
Z α1‐antitrypsin = Z α1‐antitrypsin (Homo sapiens, UniProt P01009, E366K); test: Stoichiometry of inhibition against chymotrypsin, Z α1‐antitrypsin; type: biochemical; parameters: purified from the plasma of Z α1‐antitrypsin homozygotes; from tissue; host or cells: human plasma of Z α1-antitrypsin homozygotes; conditions: Z α1‐antitrypsin pre‐incubated with GSK716 (50µM), read-out: loss of protease inhibitory activity
Z α1‐antitrypsin, sequence (P01009 25-418 E366K): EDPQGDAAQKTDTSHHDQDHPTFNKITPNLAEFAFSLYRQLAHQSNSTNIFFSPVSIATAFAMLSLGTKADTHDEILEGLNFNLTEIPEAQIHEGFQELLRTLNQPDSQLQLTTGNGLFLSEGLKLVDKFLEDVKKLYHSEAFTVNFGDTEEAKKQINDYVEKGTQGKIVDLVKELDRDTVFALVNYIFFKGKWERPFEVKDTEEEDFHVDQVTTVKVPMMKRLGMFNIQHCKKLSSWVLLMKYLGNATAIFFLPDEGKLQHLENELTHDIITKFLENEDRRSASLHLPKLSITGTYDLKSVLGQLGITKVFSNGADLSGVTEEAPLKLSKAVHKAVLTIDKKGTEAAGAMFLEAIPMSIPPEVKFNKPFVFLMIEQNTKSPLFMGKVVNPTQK
Protocol: Mutations that interfere with the opening of β‐sheet A or that perturb its interaction with the N‐terminal portion of the reactive centre loop alter the ability of serpins to inhibit target proteases (Hood et al, 1994; Irving et al, 2014). The stoichiometry of inhibition (SI) was determined for M α1‐antitrypsin and Z α1‐antitrypsin in discontinuous experiments against a model target protease, chymotrypsin. The pre‐incubation of both variants with GSK716 led to a > 98% loss of protease inhibitory activity (Fig 5A).
Figure 5 The effect of GSK716 on serpin inhibitory activity • α1‐Antitrypsin was incubated at varying molar ratios with the model protease bovine α‐chymotrypsin, and the residual protease activity determined. […] The position of covalent α1‐antitrypsin‐chymotrypsin complex (cpx), native (nat) and cleaved (clv) is shown. • The inhibitory activity of α1‐antichymotrypsin against chymotrypsin (ach + chym), neuroserpin against trypsin (neus + tryp), and antithrombin against thrombin (atiii + thrombin) was determined in the presence and absence of GSK716. […]
The native state stability of α1‐antitrypsin on addition of compounds was investigated by thermal denaturation in the presence of a 5X concentration of SYPRO Orange dye solution (Life Technologies) (Nettleship et al, 2008). Resistance to heat‐induced polymerisation was determined using an end‐point constant‐temperature assay. […]

Dopamine D1 = Dopamine D1 (Homo sapiens, UniProt P21728); test: Off‐target panel: Dopamine D1 (DRX); type: cell-based
Dopamine D1, sequence (P21728 whole entry): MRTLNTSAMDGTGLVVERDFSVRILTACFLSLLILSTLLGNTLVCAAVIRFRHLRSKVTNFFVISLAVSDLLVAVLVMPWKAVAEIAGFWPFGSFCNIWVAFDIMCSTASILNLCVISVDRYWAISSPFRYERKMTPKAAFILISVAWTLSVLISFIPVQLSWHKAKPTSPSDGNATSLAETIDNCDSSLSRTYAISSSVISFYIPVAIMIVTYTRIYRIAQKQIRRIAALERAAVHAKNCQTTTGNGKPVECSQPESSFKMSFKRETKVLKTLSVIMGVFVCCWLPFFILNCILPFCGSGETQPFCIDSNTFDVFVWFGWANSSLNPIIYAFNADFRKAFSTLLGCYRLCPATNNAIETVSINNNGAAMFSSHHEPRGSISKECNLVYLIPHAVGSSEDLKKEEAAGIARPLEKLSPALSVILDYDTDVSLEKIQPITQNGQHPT
Protocol: (§1) GSK716 selectivity and PK properties were profiled in order to investigate the suitability of GSK716 for progression into in vivo studies and the potential for taking it forward as a clinical candidate for testing in humans. Since GSK716 results in loss of inhibitory activity of α1‐antitrypsin, the effect of the compound was assessed on other closely related serpins. […] Furthermore, there were no off‐target effects in a panel of assays considered predictive of known safety liabilities that precluded further development of GSK716 (Table EV1).

[1] = biological target: Aryl hydrocarbon receptor (Homo sapiens, UniProt P35869); test: Off‐target panel: Aryl hydrocarbon receptor; type: cell-based; conditions: Activator, read-out: Mean (PXC50)
Aryl hydrocarbon receptor, sequence (P35869 11-848, species assumed): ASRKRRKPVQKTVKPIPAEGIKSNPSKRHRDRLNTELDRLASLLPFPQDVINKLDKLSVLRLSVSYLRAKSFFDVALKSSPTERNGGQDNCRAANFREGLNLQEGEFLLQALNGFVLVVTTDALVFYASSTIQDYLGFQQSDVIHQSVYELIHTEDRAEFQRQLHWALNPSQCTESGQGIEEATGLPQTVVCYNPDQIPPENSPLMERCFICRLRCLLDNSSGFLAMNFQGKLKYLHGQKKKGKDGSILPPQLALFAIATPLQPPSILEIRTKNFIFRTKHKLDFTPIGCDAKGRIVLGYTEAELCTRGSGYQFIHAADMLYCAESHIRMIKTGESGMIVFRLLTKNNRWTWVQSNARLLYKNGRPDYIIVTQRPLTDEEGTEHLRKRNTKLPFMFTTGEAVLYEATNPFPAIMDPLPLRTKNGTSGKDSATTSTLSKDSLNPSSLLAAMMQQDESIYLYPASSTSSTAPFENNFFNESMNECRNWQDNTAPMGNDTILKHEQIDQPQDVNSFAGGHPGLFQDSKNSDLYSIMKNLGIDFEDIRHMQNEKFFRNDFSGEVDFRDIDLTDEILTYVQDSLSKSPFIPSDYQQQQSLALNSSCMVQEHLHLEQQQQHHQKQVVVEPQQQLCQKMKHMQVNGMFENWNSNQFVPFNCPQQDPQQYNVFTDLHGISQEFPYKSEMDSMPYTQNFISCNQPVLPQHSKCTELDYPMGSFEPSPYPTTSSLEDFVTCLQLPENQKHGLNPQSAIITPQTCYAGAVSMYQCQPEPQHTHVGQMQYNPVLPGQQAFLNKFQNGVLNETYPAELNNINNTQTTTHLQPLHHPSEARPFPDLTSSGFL
Protocol: as §1

GABA-A = test: Off‐target panel: GABA-A (Barracuda); type: cell-based
Protocol: as §1

[2] = Total and unbound drug concentrations in blood and liver of Z α1‐antitrypsin transgenic mice; type: in vivo; conditions: for concentration at 123 h / concentration at 128 h / concentration at 339 h / concentration at 483 h: female, mouse, oral
Protocol: GSK716 was evaluated in a transgenic mouse model with an engineered random insertion of the human Z α1‐antitrypsin gene (Teckman et al, 2004). […] Further, older mice have larger α1‐antitrypsin inclusions that may be more difficult to reverse and any changes would be more difficult to detect than in younger animals. The PK‐PD relationship of GSK716 was explored by dosing Z α1‐antitrypsin transgenic animals with 10, 30 or 100 mg/kg GSK716 three times a day. […] Blood was also harvested for the measurement of monomeric Z α1‐antitrypsin in plasma. Total concentrations of GSK716 were determined by LC‐MS/MS, and the free drug in both tissues was determined using equilibrium dialysis to determine free fraction in the samples, subsequently used to derive unbound concentrations. […] Both free and total drug concentrations of GSK716 at the targeted site of action in the liver were equivalent to those in blood (Table 2).
Male CD‐1 mice, Han Wistar rats or beagle dogs were administered GSK716 as a suspension in 1% w/v aqueous methylcellulose via oral gavage at doses of 1 mg/kg (dog) or 10, 30 and 100 mg/kg (mouse, rat). Blood samples were taken into EDTA, diluted and mixed with acetonitrile containing internal standard (alprazolam) and centrifuged to precipitate proteins. Aliquots of the resultant supernatant were analysed by LC‐MS/MS, and concentrations of GSK716 in blood were determined. Non‐compartmental pharmacokinetic analysis (NCA) was carried out using Phoenix WinNonLin 6.3 (Certara L.P.). Free drug was measured in Z α1‐antitrypsin transgenic mice by dialysing tissue samples in rapid equilibrium dialysis cassettes.
Hemizygous female Z α1‐antitrypsin transgenic mice were 13–15 weeks of age at start of study. Drugs were administered via oral gavage three times a day at 8‐h intervals at 10 ml/Kg as a suspension in aqueous methylcellulose containing 0.5% w/v Tween 80. In life, blood sampling was performed vial tail nick. Animals were housed in licensed, approved housing in the UK with appropriate enrichment. Animals were randomly assigned to groups using manual methods. Histopathology analysis was performed blind.

[3] = Z α1-antitrypsin transgenic (hemizygous), whole blood, 100 mg/kg, 100 mg/kg three times a day, read-out: TOTAL mean concentration ± SD, Blood
[4] = Z α1-antitrypsin transgenic (hemizygous), whole blood, 100 mg/kg, 100 mg/kg three times a day, read-out: UNBOUND mean concentration ± SD, Blood
[5] = hemizygous Z α1-antitrypsin transgenic, liver, 100 mg/kg three times a day, read-out: TOTAL mean concentration ± SD, Liver

## CCC[C@@H](NC(=O)c1cccc2c1CC(=O)N2)[C@@H](O)c1cccc(F)c1C [GSK716]
Z α1‐antitrypsin
  inhibition at 50 µM: > 98%
Dopamine D1
  IC50: > 100 µM
[1]
  EC50: > 100 µM
GABA-A; Agonist
  Mean (PXC50): <4
GABA-A; Antagonist
  Mean (PXC50): <4
GABA-A; Pos Mod
  Mean (PXC50): <4
[2]; 30 mg/kg three times a day, time 128 h
  UNBOUND mean concentration ± SD, Liver: 0.075 (± 0.04 µM
[2]; Z α1-antitrypsin transgenic (hemizygous), liver, 10 mg/kg, 10 mg/kg three times a day, read-out: TOTAL mean concentration ± SD, Liver
  concentration at 123 h: 3.5 µM
[2]; Z α1-antitrypsin transgenic (hemizygous), liver, 10 mg/kg, 10 mg/kg three times a day, read-out: UNBOUND mean concentration ± SD, Liver
  concentration at 123 h: 0.035 µM
[2]; Z α1-antitrypsin transgenic (hemizygous), liver, 10 mg/kg, 10 mg/kg three times a day, time 128 h, read-out: TOTAL mean concentration ± SD, Liver
  concentration at 128 h: 2.1 µM
[2]; Z α1-antitrypsin transgenic (hemizygous), liver, 10 mg/kg, 10 mg/kg three times a day, time 128 h, read-out: UNBOUND mean concentration ± SD, Liver
  concentration at 128 h: 0.028 µM
[2]; Z α1-antitrypsin transgenic (hemizygous), liver, 30 mg/kg, 30 mg/kg three times a day, read-out: TOTAL mean concentration ± SD, Liver
  concentration at 123 h: 6.7 µM
[2]; Z α1-antitrypsin transgenic (hemizygous), liver, 30 mg/kg, 30 mg/kg three times a day, read-out: UNBOUND mean concentration ± SD, Liver
  concentration at 123 h: 0.091 µM
[2]; Z α1-antitrypsin transgenic (hemizygous), liver, 30 mg/kg, 30 mg/kg three times a day, time 128 h, read-out: TOTAL mean concentration ± SD, Liver
  concentration at 128 h: 8.3 µM
[2]; Z α1-antitrypsin transgenic (hemizygous), liver, 100 mg/kg, 100 mg/kg three times a day, read-out: TOTAL mean concentration ± SD, Liver
  concentration at 123 h: 40.9 µM
[2]; Z α1-antitrypsin transgenic (hemizygous), liver, 100 mg/kg, 100 mg/kg three times a day, read-out: UNBOUND mean concentration ± SD, Liver
  concentration at 123 h: 1.05 µM
[2]; Z α1-antitrypsin transgenic (hemizygous), liver, 100 mg/kg, 100 mg/kg three times a day, time 128 h, read-out: TOTAL mean concentration ± SD, Liver
  concentration at 128 h: 28.4 µM
[2]; Z α1-antitrypsin transgenic (hemizygous), liver, 100 mg/kg, 100 mg/kg three times a day, time 128 h, read-out: UNBOUND mean concentration ± SD, Liver
  concentration at 128 h: 0.679 µM
[2]; Z α1-antitrypsin transgenic (hemizygous), whole blood, 10 mg/kg, 10 mg/kg three times a day, read-out: TOTAL mean concentration ± SD, Blood
  concentration at 123 h: 8.7 µM
[2]; Z α1-antitrypsin transgenic (hemizygous), whole blood, 10 mg/kg, 10 mg/kg three times a day, read-out: UNBOUND mean concentration ± SD, Blood
  concentration at 123 h: 0.018 µM
[2]; Z α1-antitrypsin transgenic (hemizygous), whole blood, 10 mg/kg, 10 mg/kg three times a day, time 128 h, read-out: TOTAL mean concentration ± SD, Blood
  concentration at 128 h: 7.7 µM
[2]; Z α1-antitrypsin transgenic (hemizygous), whole blood, 10 mg/kg, 10 mg/kg three times a day, time 128 h, read-out: UNBOUND mean concentration ± SD, Blood
  concentration at 128 h: 0.009 µM
[2]; Z α1-antitrypsin transgenic (hemizygous), whole blood, 30 mg/kg, 30 mg/kg three times a day, read-out: TOTAL mean concentration ± SD, Blood
  concentration at 123 h: 14 µM
[2]; Z α1-antitrypsin transgenic (hemizygous), whole blood, 30 mg/kg, 30 mg/kg three times a day, read-out: UNBOUND mean concentration ± SD, Blood
  concentration at 123 h: 0.061 µM
[2]; Z α1-antitrypsin transgenic (hemizygous), whole blood, 30 mg/kg, 30 mg/kg three times a day, time 128 h, read-out: TOTAL mean concentration ± SD, Blood
  concentration at 128 h: 13 µM
[2]; Z α1-antitrypsin transgenic (hemizygous), whole blood, 30 mg/kg, 30 mg/kg three times a day, time 128 h, read-out: UNBOUND mean concentration ± SD, Blood
  concentration at 128 h: 0.051 µM
[2]; [3]
  concentration at 123 h: 33 µM
  concentration at 339 h: 30 µM
[2]; [4]
  concentration at 123 h: 0.49 µM
  concentration at 339 h: 0.529 µM
[2]; Z α1-antitrypsin transgenic (hemizygous), whole blood, 100 mg/kg, 100 mg/kg three times a day, time 128 h, read-out: TOTAL mean concentration ± SD, Blood
  concentration at 128 h: 20 µM
[2]; Z α1-antitrypsin transgenic (hemizygous), whole blood, 100 mg/kg, 100 mg/kg three times a day, time 128 h, read-out: UNBOUND mean concentration ± SD, Blood
  concentration at 128 h: 0.18 µM
[2]; hemizygous Z α1-antitrypsin transgenic, blood, 100 mg/kg three times a day, read-out: TOTAL mean concentration ± SD, Blood
  concentration at 483 h: 22 µM
[2]; hemizygous Z α1-antitrypsin transgenic, blood, 100 mg/kg three times a day, read-out: UNBOUND mean concentration ± SD, Blood
  concentration at 483 h: 0.561 µM
[2]; [5]
  concentration at 339 h: 84.6 µM
  concentration at 483 h: 42.4 µM
